How the values were obtained:
Test in all cases: relative viability (nuclei count vs DMSO), 5 days (fraction); higher = more cells survive
[1] = compound: O=c1[nH]cc(F)c(=O)[nH]1 [5-Fluorouracil] + Cc1nc(Nc2ncc(C(=O)Nc3c(C)cccc3Cl)s2)cc(N2CCN(CCO)CC2)n1 [Dasatinib] (partner 0.075 µM)
In short: (§1)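 Lung cancer cell lines, seeded in 1536-well plates, were treated the following day by pin tool with a single drug or with five library-drug doses (not always all listed) in √10 steps on top of a fixed anchor-drug dose. Cells were fixed and nuclei stained in one step after 5 days, and nuclei were counted. Relative viability is the nuclei count for treated wells divided by that for vehicle wells, reported as medians of duplicate plates.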

[2] = compound: O=c1[nH]cc(F)c(=O)[nH]1 [5-Fluorouracil] + CC1(C)CCC(c2ccc(Cl)cc2)=C(CN2CCN(c3ccc(C(=O)NS(=O)(=O)c4ccc(N[C@H](CCN5CCOCC5)CSc5ccccc5)c(S(=O)(=O)C(F)(F)F)c4)cc3)CC2)C1 [Navitoclax] (partner 0.5 µM)
In short: as §1

[3] = compound: O=c1[nH]cc(F)c(=O)[nH]1 [5-Fluorouracil] + Nc1nc2[nH]cc(CCc3ccc(C(=O)N[C@@H](CCC(=O)O)C(=O)O)cc3)c2c(=O)[nH]1 [Pemetrexed] (partner 0.2 µM)
In short: as §1

[4] = compound: O=c1[nH]cc(F)c(=O)[nH]1 [5-Fluorouracil] + COc1cc2c(Oc3ccc(NC(=O)C4(C(=O)Nc5ccc(F)cc5)CC4)cc3F)ccnc2cc1OCCCN1CCOCC1 [Foretinib] (partner 0.25 µM)
In short: as §1

| Cell Line | relative viability ([1]; first compound 0.02 µM) | relative viability ([1]; first compound 0.2 µM) | relative viability ([1]; first compound 0.6325 µM) | relative viability ([1]; first compound 2 µM) | relative viability ([2]; first compound 0.02 µM) | relative viability ([2]; first compound 0.2 µM) | relative viability ([2]; first compound 0.6325 µM) | relative viability ([2]; first compound 2 µM) | relative viability ([3]; first compound 0.02 µM) | relative viability ([3]; first compound 0.2 µM) | relative viability ([3]; first compound 0.6325 µM) | relative viability ([3]; first compound 2 µM) | relative viability ([4]; first compound 0.02 µM) | relative viability ([4]; first compound 0.2 µM) | relative viability ([4]; first compound 0.6325 µM) | relative viability ([4]; first compound 2 µM) |
| --- | --- | --- | --- | --- | --- | --- | --- | --- | --- | --- | --- | --- | --- | --- | --- | --- |
| 201T | 0.592 | 0.555 | 0.348 | 0.284 | 1.18 | 1.01 | 0.543 | 0.42 | 0.322 | 0.267 | 0.274 | 0.248 | 1.18 | 0.509 | 0.211 | 0.176 |
| A549 | – | – | – | – | 1.2 | 0.754 | 0.244 | 0.114 | – | – | – | – | 0.992 | 0.945 | 0.517 | 0.156 |
| A-427 | 0.562 | 0.764 | 0.618 | 0.353 | 0.827 | 0.999 | 0.879 | 0.438 | 0.852 | 0.984 | 0.866 | 0.55 | 0.961 | 1.19 | 1.08 | 0.625 |
| ABC-1 | 0.561 | 0.662 | 0.576 | 0.558 | – | – | – | – | – | – | – | – | 1.05 | 1.12 | 0.991 | 0.548 |
| BEN | 0.318 | 0.318 | 0.284 | 0.277 | 0.0616 | 0.276 | 0.0857 | 0.0672 | 0.817 | 0.837 | 0.758 | 0.903 | 0.63 | 0.609 | 0.548 | 0.587 |
| CAL-12T | 0.403 | 0.371 | 0.282 | 0.261 | 1.13 | 1.25 | 0.974 | 0.489 | 1.19 | 1 | 0.942 | 0.657 | 1.21 | 1.21 | 1.07 | 0.434 |
| COR-L23 | 0.529 | 0.467 | 0.254 | 0.186 | 1.05 | 0.949 | 0.533 | 0.239 | 0.194 | 0.195 | 0.194 | 0.185 | 0.982 | 0.886 | 0.522 | 0.289 |
| COR-L 105 | 0.292 | 0.362 | 0.29 | 0.244 | 0.707 | 0.685 | 0.694 | 0.582 | 1.2 | 1.14 | 0.87 | 0.614 | 1.2 | 1.14 | 0.929 | 0.595 |
| Calu-6 | – | – | – | – | 0.859 | 0.786 | 0.679 | 0.362 | – | – | – | – | 0.853 | 0.941 | 0.871 | 0.491 |
| ChaGo-K-1 | 0.558 | 0.595 | 0.386 | 0.39 | 0.956 | 1.07 | 0.672 | 0.685 | 0.252 | 0.262 | 0.26 | 0.261 | 0.975 | 0.874 | 0.724 | 0.557 |
| EBC-1 | – | – | – | – | 0.342 | 0.405 | 0.44 | 0.339 | – | – | – | – | 0.101 | 0.106 | 0.0923 | 0.108 |
| EKVX | – | – | – | – | 0.847 | 0.283 | 0.142 | 0.124 | 0.305 | 0.283 | – | – | 0.707 | 0.321 | 0.177 | 0.149 |
| EMC-BAC-2 | 0.343 | 0.332 | 0.368 | 0.35 | 1.19 | 1.2 | 1.25 | 1.19 | 0.47 | 0.479 | 0.419 | 0.484 | 1.1 | 1.01 | 1.05 | 0.963 |
| EPLC-272H | 0.271 | 0.304 | 0.234 | 0.129 | 1.18 | 0.79 | 0.372 | 0.259 | 0.242 | 0.23 | 0.269 | 0.274 | 0.665 | 0.446 | 0.296 | 0.163 |
| H3255 | 0.304 | 0.5 | 0.328 | 0.359 | 0.566 | 0.795 | 0.454 | 0.419 | 0.557 | 0.6 | 0.557 | 0.449 | 0.861 | 1.08 | 0.872 | 0.656 |
| HARA | 0.274 | 0.388 | 0.232 | 0.192 | 1.12 | 1.15 | 1.11 | 1.15 | 0.244 | 0.231 | 0.212 | 0.289 | 0.884 | 0.855 | 0.875 | 0.713 |
| HCC-15 | 0.701 | 0.713 | 0.417 | 0.275 | 0.761 | 0.77 | 0.469 | 0.298 | 0.219 | 0.217 | 0.21 | 0.218 | 1.13 | 0.961 | 0.583 | 0.351 |
| HCC-44 | – | – | – | – | 0.916 | 0.984 | 0.744 | 0.341 | 0.641 | 0.625 | 0.569 | 0.471 | – | – | – | – |
| HCC-78 | 0.34 | 0.427 | 0.322 | 0.254 | 0.55 | 0.805 | 0.285 | – | 0.924 | 0.866 | 0.858 | 0.915 | 0.548 | 0.527 | 0.459 | 0.325 |
| HCC-366 | 0.559 | 0.61 | 0.249 | 0.0872 | 1.19 | 0.992 | 0.545 | 0.125 | 0.142 | 0.145 | 0.0984 | 0.123 | 0.955 | 0.732 | 0.43 | 0.217 |
| HCC-827 | 0.254 | 0.335 | 0.305 | 0.337 | 0.969 | 1 | 0.592 | 0.382 | 0.238 | 0.239 | 0.273 | 0.262 | 0.879 | 0.95 | 0.602 | 0.429 |
| HOP-62 | 0.681 | 0.69 | 0.59 | 0.558 | 1.09 | 1.13 | 1.01 | 0.805 | 0.323 | 0.361 | 0.287 | 0.342 | 1.14 | 1.12 | 1.22 | 0.95 |
| IA-LM | – | – | – | – | 0.934 | 0.328 | 0.179 | 0.178 | – | – | – | – | 1.33 | 0.618 | 0.496 | 0.236 |
